Counter-ions that a name gives are not always drawn. Like-named read-outs stand apart in the source and are kept apart here.
Legend:
MCF-7:C cells = settings: 10 nM; cited from earlier work
[1] = system: HT-29 human colon adenocarcinoma cells; settings: read-out: IC50 (cytotoxicity); cited from earlier work
[2] = system: HT-29 human colon adenocarcinoma cells; settings: read-out: IC50 (DNA damage); cited from earlier work
[3] = biological target: mitochondrial long-chain 3-ketoacyl thiolase (Homo sapiens, UniProt P55084); settings: cited from earlier work
[4] = biological target: GABAA receptor α1 subunits (Homo sapiens, UniProt P14867); settings: cited from earlier work
HIV-1 = settings: MT-4 cells; cited from earlier work
HBV = settings: mouse, in vivo; cited from earlier work
HepG2 2.2.15 cells = settings: cited from earlier work
hepatitis B virus (HBV) = settings: HepG2 2.2.15 cells infected with HBV; cited from earlier work
HIV aspartyl protease = HIV aspartyl protease (Human immunodeficiency virus type 1 group M subtype B, UniProt P04585); settings: cited from earlier work
[5] = 20 mg/kg saquinavir with 50 mg/kg ritonavir, mice; cited from earlier work
HIV-2 protease = HIV-2 protease (Human immunodeficiency virus type 2 subtype A, UniProt P04584); settings: cited from earlier work
SIHA cells = settings: cited from earlier work
Scaber cells = settings: cited from earlier work
COLO205 cells = settings: cited from earlier work
HCT116 cells = settings: cited from earlier work
MKN45 cells = settings: cited from earlier work
MCF-7 cells = settings: cited from earlier work
[6] = biological target: transient receptor potential canonical channel 5 (TRPC5) (Homo sapiens, UniProt Q9UL62); settings: cited from earlier work
MO-91 = settings: cited from earlier work
CUTO-3.29 = settings: cited from earlier work
[7] = system: tropomyosin-related kinases TrkA, TrkB, and TrkC; settings: cited from earlier work
KM12 = settings: cited from earlier work
ACE2 = biological target: T1, ACE2 (Homo sapiens, UniProt Q9BYF1); test: ACE2 activity assay; format: biochemical
T1 construct: purchased BPS Bioscience 79923 (assay kit)
Source text: The ACE2 Activity Assay described in this example is designed to measure the exopeptidase activity of ACE2 for screening and profiling applications. The ACE2 assay can be performed in a convenient 96-well format, with purified ACE2, its substrate, and ACE2 buffer for 96 reactions. See https://bpsioscience.com/ace2-inhibitor-screening-assay-kit-79923
ACE2, ACE2 Fluorogenic Substrate, ACE2 buffer, 96-well black microplate. Adjustable micropipettor and sterile tips and Fluorescent microplate reader.
All Samples and Controls were Tested in Duplicate.
• 1. Thawed ACE2 on ice. Upon first thaw, tube containing enzyme was briefly spun to recover full contents of the tube. Note: ACE2 is sensitive to freeze/thaw cycles. • 2. Prepared Enzyme solution (0.5 ng/μl ACE2) by diluting ACE2 in ACE2 Buffer. • 3. Added 20 μl of Enzyme solution (0.5 ng/μl ACE2) to each well designated “Positive Control” and “Test Inhibitor,” and 20 μl of ACE2 buffer to each well designated “Blank.” • 4. Added 5 μl of Test Inhibitor solution to each well designated “Test Inhibitor.” For the wells labeled “Positive Control” and “Blank,” added 5 μl of 10% DMSO in water (Inhibitor buffer). The final concentration of DMSO in the reaction was kept ≤1%. • 5. Added 25 μl of ACE2 Fluorogenic Substrate to all wells. Protected from light and reaction was incubated at room temperature for 60 minutes.
• 6. The fluorescence intensity of the samples (λexcitation=555 nm; λemission=585 nm) was read in an appropriate microplate reader. Data Analysis
All of the enzyme activity assays were performed in duplicates at each concentration. The fluorescent intensity data were analyzed using the computer software Graphpad Prism. In the absence of the compound, the fluorescent intensity (Ft) in each data set was defined as 100% activity. In the absence of the enzyme, the fluorescent intensity (Fb) in each data set was defined as 0% activity. The percent activity in the presence of each compound was calculated according to the following equation: % activity=(F−Fb)/(Ft−Fb), where F=the fluorescent intensity in the presence of the compound.
The values of percentage activity were plotted on a bar graph.

Notch signaling = settings: cited from earlier work
γ-secretase = settings: cited from earlier work
[8] = biological target: lysophosphatidic acyl transferase (LPAAT); settings: LPS-activated LPAAT; read-out: IC50 (generation of phosphatidic acid); cited from earlier work
[9] = system: isolated peripheral blood mononuclear cells; settings: cited from earlier work
[10] = biological target: human acidic mammalian chitinase (Homo sapiens, UniProt Q9BZP6); settings: cited from earlier work
human acidic mammalian chitinase, sequence (Q9BZP6 22-476): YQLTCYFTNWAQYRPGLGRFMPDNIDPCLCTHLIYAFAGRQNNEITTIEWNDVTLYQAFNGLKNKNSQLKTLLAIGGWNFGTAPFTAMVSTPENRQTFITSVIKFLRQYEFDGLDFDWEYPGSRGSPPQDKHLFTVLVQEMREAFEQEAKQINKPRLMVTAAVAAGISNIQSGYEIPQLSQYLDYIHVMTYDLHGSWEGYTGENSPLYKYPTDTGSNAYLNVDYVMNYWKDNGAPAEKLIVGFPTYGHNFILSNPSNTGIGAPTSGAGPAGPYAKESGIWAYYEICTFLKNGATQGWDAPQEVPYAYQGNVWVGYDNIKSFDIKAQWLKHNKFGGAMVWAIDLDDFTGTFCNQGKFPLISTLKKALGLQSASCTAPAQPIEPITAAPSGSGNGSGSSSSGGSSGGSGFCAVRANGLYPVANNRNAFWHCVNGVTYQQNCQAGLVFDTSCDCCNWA

T1 sequence (Q9BYF1 18-805): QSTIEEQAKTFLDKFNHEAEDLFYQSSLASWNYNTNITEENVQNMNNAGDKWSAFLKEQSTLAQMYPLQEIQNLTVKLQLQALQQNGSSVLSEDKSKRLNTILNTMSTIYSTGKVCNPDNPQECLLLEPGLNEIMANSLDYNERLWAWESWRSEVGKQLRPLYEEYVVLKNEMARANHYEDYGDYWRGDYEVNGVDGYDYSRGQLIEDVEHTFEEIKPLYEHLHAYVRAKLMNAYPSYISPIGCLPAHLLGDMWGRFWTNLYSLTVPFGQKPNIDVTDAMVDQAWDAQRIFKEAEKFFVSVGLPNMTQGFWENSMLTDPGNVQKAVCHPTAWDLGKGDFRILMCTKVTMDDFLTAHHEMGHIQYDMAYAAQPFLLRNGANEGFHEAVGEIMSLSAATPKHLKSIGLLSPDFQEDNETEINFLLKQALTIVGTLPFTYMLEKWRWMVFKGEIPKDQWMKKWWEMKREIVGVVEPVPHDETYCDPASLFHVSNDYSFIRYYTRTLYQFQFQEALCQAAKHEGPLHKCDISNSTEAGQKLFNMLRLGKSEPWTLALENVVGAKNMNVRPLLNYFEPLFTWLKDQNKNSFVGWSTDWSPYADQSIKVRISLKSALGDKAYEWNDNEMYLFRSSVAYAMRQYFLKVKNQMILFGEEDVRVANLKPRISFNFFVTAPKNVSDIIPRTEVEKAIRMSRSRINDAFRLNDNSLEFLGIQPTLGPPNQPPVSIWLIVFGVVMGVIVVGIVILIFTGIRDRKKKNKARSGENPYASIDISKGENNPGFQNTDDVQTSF
transient receptor potential canonical channel 5 (TRPC5), sequence (Q9UL62 whole entry, species assumed): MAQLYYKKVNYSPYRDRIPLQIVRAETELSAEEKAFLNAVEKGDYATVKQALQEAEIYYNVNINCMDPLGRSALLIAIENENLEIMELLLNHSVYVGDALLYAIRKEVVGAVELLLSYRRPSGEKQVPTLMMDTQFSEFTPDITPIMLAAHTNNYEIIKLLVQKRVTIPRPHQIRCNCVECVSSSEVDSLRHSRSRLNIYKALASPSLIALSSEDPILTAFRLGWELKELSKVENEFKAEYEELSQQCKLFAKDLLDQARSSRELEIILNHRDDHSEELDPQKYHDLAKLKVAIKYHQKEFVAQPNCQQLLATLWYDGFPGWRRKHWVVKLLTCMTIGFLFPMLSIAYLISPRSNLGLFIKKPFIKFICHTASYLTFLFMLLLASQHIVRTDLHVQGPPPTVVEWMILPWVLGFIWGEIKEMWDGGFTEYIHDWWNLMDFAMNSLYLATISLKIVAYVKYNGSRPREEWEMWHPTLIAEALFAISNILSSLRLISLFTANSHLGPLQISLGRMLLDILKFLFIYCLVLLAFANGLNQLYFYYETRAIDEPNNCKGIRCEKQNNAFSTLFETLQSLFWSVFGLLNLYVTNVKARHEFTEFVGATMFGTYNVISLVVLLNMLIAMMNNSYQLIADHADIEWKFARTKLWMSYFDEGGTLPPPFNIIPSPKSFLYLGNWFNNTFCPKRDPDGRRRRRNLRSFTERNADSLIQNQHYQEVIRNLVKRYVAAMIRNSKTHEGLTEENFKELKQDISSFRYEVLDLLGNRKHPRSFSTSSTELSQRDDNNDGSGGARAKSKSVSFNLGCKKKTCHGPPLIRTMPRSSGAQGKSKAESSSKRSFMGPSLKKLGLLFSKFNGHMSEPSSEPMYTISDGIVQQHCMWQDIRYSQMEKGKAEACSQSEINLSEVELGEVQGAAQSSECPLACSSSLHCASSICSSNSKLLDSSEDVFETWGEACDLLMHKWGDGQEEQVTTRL
HIV-2 protease, sequence (P04584 514-612 limits assumed): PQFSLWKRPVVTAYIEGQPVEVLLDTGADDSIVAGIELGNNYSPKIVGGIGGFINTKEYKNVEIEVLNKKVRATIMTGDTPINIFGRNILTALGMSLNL
GABAA receptor α1 subunits, sequence (P14867 28-456): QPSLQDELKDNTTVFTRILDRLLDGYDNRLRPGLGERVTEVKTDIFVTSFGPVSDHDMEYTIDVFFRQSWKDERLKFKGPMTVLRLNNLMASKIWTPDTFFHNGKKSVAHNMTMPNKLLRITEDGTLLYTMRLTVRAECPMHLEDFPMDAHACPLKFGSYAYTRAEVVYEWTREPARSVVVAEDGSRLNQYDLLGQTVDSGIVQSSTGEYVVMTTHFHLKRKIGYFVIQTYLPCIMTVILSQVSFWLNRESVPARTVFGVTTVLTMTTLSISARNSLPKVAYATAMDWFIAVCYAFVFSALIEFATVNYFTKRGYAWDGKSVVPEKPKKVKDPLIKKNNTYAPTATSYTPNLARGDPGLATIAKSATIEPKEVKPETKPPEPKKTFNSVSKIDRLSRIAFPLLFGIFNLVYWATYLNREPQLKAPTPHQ
GABAA receptor α1 subunits, sequence (P47870 25-512 partner limits assumed): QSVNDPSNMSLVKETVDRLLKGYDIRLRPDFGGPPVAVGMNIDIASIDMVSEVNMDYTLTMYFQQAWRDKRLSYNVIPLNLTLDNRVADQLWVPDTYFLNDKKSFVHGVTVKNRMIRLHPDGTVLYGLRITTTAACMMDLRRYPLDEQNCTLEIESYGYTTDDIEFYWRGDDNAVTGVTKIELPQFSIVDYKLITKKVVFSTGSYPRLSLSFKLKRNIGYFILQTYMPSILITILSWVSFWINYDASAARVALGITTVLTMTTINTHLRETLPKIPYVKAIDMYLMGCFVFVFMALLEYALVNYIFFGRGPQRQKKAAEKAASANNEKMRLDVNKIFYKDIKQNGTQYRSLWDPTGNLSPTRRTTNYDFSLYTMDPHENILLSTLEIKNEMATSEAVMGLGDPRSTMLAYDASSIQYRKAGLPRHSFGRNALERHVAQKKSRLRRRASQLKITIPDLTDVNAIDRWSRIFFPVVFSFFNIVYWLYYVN
GABAA receptor α1 subunits, sequence (P18507 40-467 partner limits assumed): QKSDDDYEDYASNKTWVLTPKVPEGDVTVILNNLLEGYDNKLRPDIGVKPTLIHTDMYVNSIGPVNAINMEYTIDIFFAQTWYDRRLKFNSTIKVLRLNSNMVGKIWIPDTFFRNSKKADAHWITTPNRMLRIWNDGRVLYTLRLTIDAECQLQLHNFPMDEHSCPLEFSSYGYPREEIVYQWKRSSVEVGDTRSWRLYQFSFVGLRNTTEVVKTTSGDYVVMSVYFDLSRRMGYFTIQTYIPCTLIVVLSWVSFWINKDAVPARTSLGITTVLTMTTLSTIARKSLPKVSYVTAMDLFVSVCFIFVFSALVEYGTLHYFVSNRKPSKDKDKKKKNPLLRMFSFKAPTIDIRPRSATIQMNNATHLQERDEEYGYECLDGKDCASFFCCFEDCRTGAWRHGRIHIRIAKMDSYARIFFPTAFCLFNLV
mitochondrial long-chain 3-ketoacyl thiolase, sequence (P55084 34-474): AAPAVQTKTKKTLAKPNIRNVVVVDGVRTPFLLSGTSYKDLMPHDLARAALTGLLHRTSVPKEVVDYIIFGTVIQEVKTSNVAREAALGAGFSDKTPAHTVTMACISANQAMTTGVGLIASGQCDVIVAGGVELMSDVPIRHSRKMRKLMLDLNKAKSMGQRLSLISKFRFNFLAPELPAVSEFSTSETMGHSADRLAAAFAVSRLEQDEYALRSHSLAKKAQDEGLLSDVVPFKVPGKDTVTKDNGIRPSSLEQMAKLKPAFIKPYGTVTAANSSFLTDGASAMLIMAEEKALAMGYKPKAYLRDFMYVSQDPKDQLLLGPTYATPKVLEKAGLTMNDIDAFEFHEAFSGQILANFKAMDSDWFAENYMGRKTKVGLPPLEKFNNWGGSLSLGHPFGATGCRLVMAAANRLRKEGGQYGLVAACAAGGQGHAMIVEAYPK
mitochondrial long-chain 3-ketoacyl thiolase, sequence (P40939 37-763 partner): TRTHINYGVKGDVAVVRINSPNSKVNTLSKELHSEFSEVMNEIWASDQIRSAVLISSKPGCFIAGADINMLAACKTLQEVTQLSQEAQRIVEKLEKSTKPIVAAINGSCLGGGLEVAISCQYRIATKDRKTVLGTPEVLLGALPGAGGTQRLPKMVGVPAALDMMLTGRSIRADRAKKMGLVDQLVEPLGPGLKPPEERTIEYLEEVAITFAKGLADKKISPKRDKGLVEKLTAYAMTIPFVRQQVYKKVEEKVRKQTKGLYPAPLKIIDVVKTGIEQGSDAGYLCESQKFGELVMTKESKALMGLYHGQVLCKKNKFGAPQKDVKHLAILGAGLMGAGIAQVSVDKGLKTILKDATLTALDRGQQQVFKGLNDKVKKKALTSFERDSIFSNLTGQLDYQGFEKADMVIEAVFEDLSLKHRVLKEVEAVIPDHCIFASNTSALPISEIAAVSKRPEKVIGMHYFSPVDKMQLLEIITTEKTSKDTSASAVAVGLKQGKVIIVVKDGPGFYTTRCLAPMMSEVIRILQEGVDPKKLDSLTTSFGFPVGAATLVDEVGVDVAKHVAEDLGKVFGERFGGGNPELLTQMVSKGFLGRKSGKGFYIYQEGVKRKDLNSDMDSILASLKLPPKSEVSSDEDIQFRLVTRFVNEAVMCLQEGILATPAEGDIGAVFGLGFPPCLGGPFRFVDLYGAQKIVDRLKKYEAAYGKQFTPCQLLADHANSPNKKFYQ

Compound: 1-[[4-[2-(hexahydro-1H-azepin-1-yl)ethoxy]phenyl]methyl]-2-(4-hydroxyphenyl)-3-methyl-1H-indol-5-ol, acetate [Bazedoxifene (acetate)]
- reduction of growth (MCF-7:C cells): 80%

Compound: CC[C@@]1(O)C(=O)OCc2c1cc1n(c2=O)Cc2cc3c(CN(C)C)c(O)ccc3nc2-1 [Topotecan, 10-[(dimethylamino)methyl]-4S-ethyl-4,9-dihydroxy-1H-pyrano[3′,4′:6,7]indolizino[1,2-b]quinoline-3,14(4H,12H)-dione, monohydrochloride]
- IC50 [1]: 0.033 µM
- IC50 [2]: 0.28 µM

Compound: COc1ccc(CN2CCNCC2)c(OC)c1OC [Trimetazidine (hydrochloride), 1-[(2,3,4-trimethoxyphenyl)methyl]-piperazine, dihydrochloride]
- IC50 [3]: 0.075 µM

Compound: CC(=O)N(C)c1cccc(-c2ccnc3c(C(=O)c4cccs4)cnn23)c1 [Indiplon, N-methyl-N-[3-[3-(2-thienylcarbonyl)pyrazolo[1,5-a]pyrimidin-7-yl]phenyl]-acetamide]
- EC50 [4]: 0.0026 µM

Compound: CC(C)CN(C[C@@H](O)[C@H](Cc1ccccc1)NC(=O)O[C@H]1CCOC1)S(=O)(=O)c1ccc(N)cc1 [Amprenavir, N-[(1S,2R)-3-[[(4-aminophenyl)sulfonyl](2-methylpropyl)amino]-2-hydroxy-1-(phenylmethyl)propyl]-carbamic acid, (3S)-tetrahydro-3-furanyl ester]
- IC50 (HIV-1): 0.15 µM

Compound: CC(C)(C)C(=O)OCOP(=O)(COCCn1cnc2c(N)ncnc21)OCOC(=O)C(C)(C)C [Adefovir dipivoxil, 2,2-dimethyl-propanoic acid, 1,1′-[[[[2-(6-amino-9H-purin-9-yl)ethoxy]methyl]phosphinylidene]bis(oxymethylene)]ester]
- ED50 (HBV): 0.2 μmol/kg per day
- CC50 (HepG2 2.2.15 cells): 540 µM
- EC50 (hepatitis B virus (HBV)): 0.517 µM

Compound: CCC[C@@]1(CCc2ccccc2)CC(O)=C([C@H](CC)c2cccc(NS(=O)(=O)c3ccc(C(F)(F)F)cn3)c2)C(=O)O1 [Tipranavir, N-[3-[(1R)-1-[(6R)-5,6-dihydro-4-hydroxy-2-oxo-6-(2-phenylethyl)-6-propyl-2H-pyran-3-yl]propyl]phenyl]-5-(trifluoromethyl)-2-pyridinesulfonamide]
- Ki (HIV aspartyl protease): < 0.001 µM

Compound: CC(C)(C)NC(=O)[C@@H]1C[C@@H]2CCCC[C@@H]2CN1C[C@@H](O)[C@H](Cc1ccccc1)NC(=O)[C@H](CC(N)=O)NC(=O)c1ccc2ccccc2n1.CS(=O)(=O)O [Saquinavir, (2S)—N^1—[(1S,2R)-3-[(3S,4aS,8aS)-3-[[(1,1-dimethylethyl)amino]carbonyl]octahydro-2(1H)-isoquinolinyl]-2-hydroxy-1-(phenylmethyl)propyl]-2-[(2-quinolinylcarbonyl)amino]-butanediamide, monomethanesulfonate]
- increase of bioavailability [5]: 325 fold
- Ki (HIV-2 protease): < 0.0001 µM

Compound: CCCCCOC(=O)Nc1nc(=O)n([C@@H]2O[C@H](C)[C@@H](O)[C@H]2O)cc1F [Capecitabine, 5′-deoxy-5-fluoro-N-[(pentyloxy)carbonyl]-cytidine]
- IC50 (SIHA cells): 578 µM
- IC50 (Scaber cells): 97 µM
- IC50 (COLO205 cells): > 1000 µM
- IC50 (HCT116 cells): > 1000 µM
- IC50 (MKN45 cells): 994 µM
- IC50 (MCF-7 cells): > 1000 µM

Compound: Clc1ccc(Cn2c(CN3CCCC3)nc3ccccc32)cc1 [Clemizole, 1-[(4-chlorophenyl)methyl]-2-(1-pyrrolidinylmethyl)-1H-benzimidazole, monohydrochloride]
- IC50 [6]: 1 to 1.3 µM

Compound: O=C(Nc1cnn2ccc(N3CCC[C@@H]3c3cc(F)ccc3F)nc12)N1CC[C@H](O)C1 [LOXO-101, (3S)—N-[5-[(2R)-2-(2,5-difluorophenyl)-1-pyrrolidinyl]pyrazolo[1,5-a]pyrimidin-3-yl]-3-hydroxy-1-pyrrolidinecarboxamide]
- IC50 (MO-91): < 0.01 µM
- IC50 (CUTO-3.29): < 0.1 µM
- IC50 [7]: 0.002 to 0.02 µM
- IC50 (KM12): < 0.01 µM

Compound: CC(C)[C@H](O)C(=O)N[C@@H](C)C(=O)N[C@@H]1C(=O)N(C)CCc2ccccc21 [Semagacestat, (2S)-2-hydroxy-3-methyl-N-[(1S)-1-methyl-2-oxo-2-[[(1S)-2,3,4,5-tetrahydro-3-methyl-2-oxo-1H-3-benzazepin-1-yl]amino]ethyl]-butanamide]
- ACE2 Activity (Fluorescence count) Repeat 1 (ACE2; Semagacestat 0.00586 μM, Repeat 1): 16794
- activity at 0.00586 µM (ACE2; Semagacestat 0.00586 μM, Repeat 1, read-out: % Activity Repeat 1): 99%
- ACE2 Activity (Fluorescence count) Repeat 2 (ACE2; Semagacestat 0.00586 μM, Repeat 2): 17665
- activity at 0.00586 µM (ACE2; Semagacestat 0.00586 μM, Repeat 2, read-out: % Activity Repeat 2): 104%
- ACE2 Activity (Fluorescence count) Repeat 1 (ACE2; Semagacestat 0.0117 μM, Repeat 1): 17480
- activity at 0.0117 µM (ACE2; Semagacestat 0.0117 μM, Repeat 1, read-out: % Activity Repeat 1): 103%
- ACE2 Activity (Fluorescence count) Repeat 2 (ACE2; Semagacestat 0.0117 μM, Repeat 2): 17772
- activity at 0.0117 µM (ACE2; Semagacestat 0.0117 μM, Repeat 2, read-out: % Activity Repeat 2): 105%
- ACE2 Activity (Fluorescence count) Repeat 1 (ACE2; Semagacestat 0.0234 μM, Repeat 1): 17334
- activity at 0.0234 µM (ACE2; Semagacestat 0.0234 μM, Repeat 1, read-out: % Activity Repeat 1): 102%
- ACE2 Activity (Fluorescence count) Repeat 2 (ACE2; Semagacestat 0.0234 μM, Repeat 2): 17846
- activity at 0.0234 µM (ACE2; Semagacestat 0.0234 μM, Repeat 2, read-out: % Activity Repeat 2): 105%
- ACE2 Activity (Fluorescence count) Repeat 1 (ACE2; Semagacestat 0.188 μM, Repeat 1): 16603
- activity at 0.188 µM (ACE2; Semagacestat 0.188 μM, Repeat 1, read-out: % Activity Repeat 1): 97%
- ACE2 Activity (Fluorescence count) Repeat 2 (ACE2; Semagacestat 0.188 μM, Repeat 2): 16796
- activity at 0.188 µM (ACE2; Semagacestat 0.188 μM, Repeat 2, read-out: % Activity Repeat 2): 99%
- activity at […] (ACE2; Semagacestat 0.75 μM, Repeat 1, read-out: % Activity Repeat 1): 85%
- activity at […] (ACE2; Semagacestat 0.75 μM, Repeat 2, read-out: % Activity Repeat 2): 98%
- activity at […] (ACE2; Semagacestat 1.5 μM, Repeat 1, read-out: % Activity Repeat 1): 78%
- activity at […] (ACE2; Semagacestat 1.5 μM, Repeat 2, read-out: % Activity Repeat 2): 85%
- effect on ACE2 activity (in words) (ACE2; test range 0.0029-1.5): inhibited ACE2 activity
- IC50 (Notch signaling): 0.0141 µM
- IC50 (γ-secretase; Aβ38, read-out: IC50 (production of Aβ38)): 0.012 µM
- IC50 (γ-secretase; Aβ40, read-out: IC50 (production of Aβ40)): 0.0121 µM
- IC50 (γ-secretase; Aβ42, read-out: IC50 (production of Aβ42)): 0.0109 µM

Compound: CC(=O)CCCCn1c(=O)c2c(ncn2C)n(C)c1=O [Pentoxifylline, 3,7-dihydro-3,7-dimethyl-1-(5-oxohexyl)-1H-purine-2,6-dione]
- IC50 [8]: 500 µM
- IC50 [9]: 85 µM
- IC50 [10]: 49 µM

— patent publication US12551475B2, “Methods and compositions for treating RNA viral infections” (Model Medicines, Inc., priority 2020, dated 2026)
